Assay results as given in US20250049775A1, “USE OF AMINOPYRAZOLE COMPOUNDS” (Intervet Inc., priority 2021, published 2025).

Experiments:
[1] = pilot Target Animal Safety (margin of safety) study, oral, 4 months; format: in vivo, Beagle dog
Experimental: A pilot Target Animal Safety study has been performed.
The objective of this study was to provide margin of safety information on Compound 1 at 1, 3 and 5 times the maximum recommended commercial dose (0.6 mg/kg body weight twice daily for two weeks and once daily thereafter (BID), or 1.2 mg/kg body weight daily (SID)) in 8-month-old Beagle dogs (at initiation of dosing), when given orally for 4 months (112 consecutive days). The clinical loading phase of 2 weeks for the BID treatment schedule was prolonged to 6 weeks in this study in accordance with VICH GL43 (3 times the proposed duration).
The test item was the final formulation blend of the investigational veterinary product, filled into gelatine capsules for dose administration. The control article was blank (empty) gelatine capsules.
In addition to that, a 4-month pilot target animal safety study has been conducted in 6-months old dogs utilizing either doses of 0.6, 1.8 or 3.0 mg/kg twice daily over the first 6 weeks (loading phase) and reducing to once daily thereafter (BID), or a dose of 6.0 mg/kg administered once daily over the whole study period (SID) compared to a control group, using 3 males and 3 females per group (Robertson, 2021).

Tmax after oral dosing = format: in vivo, Beagle dog; conditions: laboratory Beagle dogs
Experimental: (§1) Using a randomized, non-blinded, cross-over study design, Compound 1 (1 mg/kg body weight), Apoquel®, or placebo was dosed orally to laboratory Beagle dogs 2 h prior to a cIL-31 challenge (approximate Tmax of Compound 1 and Apoquel®).

cIL-31 induced pruritus [2] = assay: canine interleukin-31 (cIL-31) induced pruritus model; format: in vivo, Beagle dog
Source text: A canine interleukin-31 (cIL-31) induced pruritus model in the Beagle dog was used to inform on the dose of Compound 1 required to inhibit JAK1 signaling in vivo. The cIL-31 induced pruritus model is a relevant model of acute pruritus associated with atopic and allergic dermatitis in dogs. The magnitude of the suppression of cIL-31 induced pruritus by JAK inhibitors is predictive of their pruritus suppression in patients with allergic or atopic dermatitis As a measure of JAK-1 inhibition in vivo, and by extension the anticipated clinical efficacy of Compound 1, we evaluated Compound 1 in a relevant pharmacodynamic model and included a clinical reference.
as §1
In a second study using a randomized, non-blinded crossover design, several doses of Compound 1 were evaluated (0.5, 0.1 and 0.05 mg/kg body weight); Apoquel® and placebo treatments were also included.

cIL-31 induced pruritus [3] = conditions: prior treatment, Beagle dogs, Gonzales et al. 2016; cited from earlier work
[4] = cited from earlier work
[5] = tested on: pruritus and lesions of allergic or atopic dermatitis; conditions: cited from earlier work
[6] = dogs with allergic or atopic dermatitis, Cosgrove et al. 2013

Molecule: COc1cc(Nc2nn([C@H]3COCC[C@@H]3C#N)cc2C(N)=O)cc(F)n1 (single isomer, unassigned) [Compound 1, 1-((3R,4S) or (3S,4R)-4-cyanotetrahydro-2H-pyran-3-yl)-3-((2-fluoro-6-methoxypyridin-4-yl)amino)-1H-pyrazole-4-carboxamide)]
- changes in body weight, food consumption, ophthalmic examinations, electrocardiology or blood pressure ([1]; all doses, male and female dogs, oral, 4 months): no changes
- tolerability ([1]; daily oral, up to 5 times the recommended maximum commercial dose of 1.2 mg/kg body weight (BID or SID), 6-month-old beagle dogs): well tolerated
- clinical findings ([1]; overdosed animals): Minor clinical findings (e.g., interdigital cysts, conjunctivitis, gingivitis, diarrhoea)
- susceptibility to minor infections ([1]; recommended maximum commercial dose): no increased susceptibility to minor infections
- susceptibility to minor infections ([1]; repeated overdoses): increased susceptibility to minor infections
- overall safety conclusion ([1]; young dogs): safe for use in young dogs
- Tmax (Tmax after oral dosing; dog, in vivo, 1 mg/kg body weight, read-out: approximate Tmax): ~2 h
- suppression of cIL-31 induced pruritus (cIL-31 induced pruritus [2]; 0.05 mg/kg body weight, second study): not
- suppression of cIL-31 induced pruritus (cIL-31 induced pruritus [2]; 0.1 mg/kg body weight, second study): not
- suppression of cIL-31 induced pruritus (cIL-31 induced pruritus [2]; 0.5 mg/kg body weight, second study): significantly suppressed
- magnitude of effect compared with Apoquel (cIL-31 induced pruritus [2]; 0.5 mg/kg, second study): similar
- suppression of cIL-31 induced pruritus (cIL-31 induced pruritus [2]; 1 mg/kg body weight oral, 2 h prior to cIL-31 challenge, observed 2 h): significantly suppressed

Molecule: oclacitinib maleate [Apoquel]
- inhibition of cIL-31 induced pruritic response (cIL-31 induced pruritus [3]): can be inhibited
- approximate Tmax (Tmax after oral dosing): ~2 h
- dogs requiring euthanasia ([4]; after 4 months, 0, 1, 3, 5 times 0.6 mg/kg twice per day, dogs about 6 months old): two dogs required euthanasia
- age dependence of adverse clinical effects ([4]; dog, in vivo): most severe adverse clinical effects were observed in dogs aged less than one year
- deaths from infection secondary to immunosuppression ([4]; including one death 28 days after discontinuation): two deaths
- adverse finding attributed to treatment-related immunosuppression ([4]; several dogs in the mid and high dose groups): clinical demodicosis
- effect on lesions [5, 6]: reduces lesions
- effect on pruritus [5, 6]: rapid amelioration of pruritus
- haematology effect ([5]; higher doses, FOI Summary NADA 141-345, Gonzales et al. 2014): reduction in hematocrit, hemoglobin, and reticulocyte counts
